What was measured:
Assay in all cases: relative viability (nuclei count vs DMSO), 5 days (fraction); higher = more cells survive
[1] = tested on: NCI-H23
How it was run: (§1)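 Dosing by pin tool came one day after lung cancer cell lines were seeded in 1536-well plates, using either one drug or a fixed anchor-drug dose plus five library-drug doses (not always all listed) in √10 steps. After 5 days, nuclei were counted on 4× images. Relative viability is treated-well nuclei count divided by vehicle-well nuclei count, and values are medians of duplicate plates.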

[2] = tested on: NCI-H1975
How it was run: as §1

[3] = tested on: NCI-H1734
How it was run: as §1

[4] = tested on: PC-3 [JPC-3]
How it was run: as §1

[5] = tested on: SK-MES-1
How it was run: as §1

[6] = tested on: LOU-NH91
How it was run: as §1

[7] = tested on: NCI-H1755
How it was run: as §1

[8] = tested on: H3255
How it was run: as §1

[9] = tested on: NCI-H1563
How it was run: as §1

[10] = tested on: A-427
How it was run: as §1

[11] = tested on: COR-L 105
How it was run: as §1

[12] = tested on: NCI-H596
How it was run: as §1

[13] = tested on: HCC-366
How it was run: as §1

[14] = tested on: EKVX
How it was run: as §1

[15] = tested on: NCI-H1666
How it was run: as §1

[16] = tested on: NCI-H520
How it was run: as §1

[17] = tested on: NCI-H2170
How it was run: as §1

[18] = tested on: LK-2
How it was run: as §1

[19] = tested on: EMC-BAC-2
How it was run: as §1

Structure (SMILES): O=c1cc(-c2cccc3c2Sc2ccccc2S3)oc(N2CCOCC2)c1 + CS(=O)(=O)CCNCc1ccc(-c2ccc3ncnc(Nc4ccc(OCc5cccc(F)c5)c(Cl)c4)c3c2)o1 [Lapatinib] (partner 2 µM)
- relative viability ([1]; first compound 0.08 µM): 1.1
- relative viability ([1]; first compound 0.253 µM): 1.34
- relative viability ([1]; first compound 0.8 µM): 1.14
- relative viability ([1]; first compound 2.53 µM): 0.868
- relative viability ([1]; first compound 8 µM): 1.17
- relative viability ([2]; first compound 0.08 µM): 0.827
- relative viability ([2]; first compound 0.253 µM): 1.06
- relative viability ([2]; first compound 0.8 µM): 0.894
- relative viability ([2]; first compound 2.53 µM): 0.794
- relative viability ([2]; first compound 8 µM): 0.973
- relative viability ([3]; first compound 0.08 µM): 1.07
- relative viability ([3]; first compound 0.253 µM): 1.55
- relative viability ([3]; first compound 0.8 µM): 1.12
- relative viability ([3]; first compound 2.53 µM): 0.79
- relative viability ([3]; first compound 8 µM): 1.51
- relative viability ([4]; first compound 0.08 µM): 0.44
- relative viability ([4]; first compound 0.253 µM): 0.497
- relative viability ([4]; first compound 0.8 µM): 0.435
- relative viability ([4]; first compound 2.53 µM): 0.437
- relative viability ([4]; first compound 8 µM): 0.532
- relative viability ([5]; first compound 0.08 µM): 0.487
- relative viability ([5]; first compound 0.253 µM): 0.562
- relative viability ([5]; first compound 0.8 µM): 0.445
- relative viability ([5]; first compound 2.53 µM): 0.483
- relative viability ([5]; first compound 8 µM): 0.439
- relative viability ([6]; first compound 0.08 µM): 0.707
- relative viability ([6]; first compound 0.253 µM): 0.803
- relative viability ([6]; first compound 0.8 µM): 0.554
- relative viability ([6]; first compound 2.53 µM): 0.751
- relative viability ([6]; first compound 8 µM): 0.732
- relative viability ([7]; first compound 0.08 µM): 1.09
- relative viability ([7]; first compound 0.253 µM): 1.06
- relative viability ([7]; first compound 0.8 µM): 1.15
- relative viability ([7]; first compound 2.53 µM): 1.03
- relative viability ([7]; first compound 8 µM): 1.08
- relative viability ([8]; first compound 0.08 µM): 0.239
- relative viability ([8]; first compound 0.253 µM): 0.226
- relative viability ([8]; first compound 0.8 µM): 0.224
- relative viability ([8]; first compound 2.53 µM): 0.231
- relative viability ([8]; first compound 8 µM): 0.225
- relative viability ([9]; first compound 0.08 µM): 0.872
- relative viability ([9]; first compound 0.253 µM): 0.978
- relative viability ([9]; first compound 0.8 µM): 0.9
- relative viability ([9]; first compound 2.53 µM): 0.934
- relative viability ([9]; first compound 8 µM): 0.891
- relative viability ([10]; first compound 0.08 µM): 1.06
- relative viability ([10]; first compound 0.253 µM): 1.05
- relative viability ([10]; first compound 0.8 µM): 1.08
- relative viability ([10]; first compound 2.53 µM): 0.868
- relative viability ([10]; first compound 8 µM): 1.12
- relative viability ([11]; first compound 0.08 µM): 0.359
- relative viability ([11]; first compound 0.253 µM): 0.323
- relative viability ([11]; first compound 0.8 µM): 0.306
- relative viability ([11]; first compound 2.53 µM): 0.375
- relative viability ([11]; first compound 8 µM): 0.386
- relative viability ([12]; first compound 0.08 µM): 1.06
- relative viability ([12]; first compound 0.253 µM): 1.06
- relative viability ([12]; first compound 0.8 µM): 0.95
- relative viability ([12]; first compound 2.53 µM): 0.894
- relative viability ([12]; first compound 8 µM): 1.22
- relative viability ([13]; first compound 0.08 µM): 1.12
- relative viability ([13]; first compound 0.253 µM): 1.71
- relative viability ([13]; first compound 0.8 µM): 1.12
- relative viability ([13]; first compound 2.53 µM): 0.995
- relative viability ([13]; first compound 8 µM): 1.56
- relative viability ([14]; first compound 0.08 µM): 0.226
- relative viability ([14]; first compound 0.253 µM): 0.186
- relative viability ([14]; first compound 0.8 µM): 0.166
- relative viability ([14]; first compound 2.53 µM): 0.186
- relative viability ([14]; first compound 8 µM): 0.202
- relative viability ([15]; first compound 0.08 µM): 0.533
- relative viability ([15]; first compound 0.253 µM): 0.781
- relative viability ([15]; first compound 0.8 µM): 0.485
- relative viability ([15]; first compound 2.53 µM): 0.652
- relative viability ([15]; first compound 8 µM): 0.573
- relative viability ([16]; first compound 0.08 µM): 0.767
- relative viability ([16]; first compound 0.253 µM): 1.13
- relative viability ([16]; first compound 0.8 µM): 0.973
- relative viability ([16]; first compound 2.53 µM): 0.787
- relative viability ([16]; first compound 8 µM): 0.961
- relative viability ([17]; first compound 0.08 µM): 0.258
- relative viability ([17]; first compound 0.253 µM): 0.284
- relative viability ([17]; first compound 0.8 µM): 0.239
- relative viability ([17]; first compound 2.53 µM): 0.271
- relative viability ([17]; first compound 8 µM): 0.308
- relative viability ([18]; first compound 0.08 µM): 0.86
- relative viability ([18]; first compound 0.253 µM): 1
- relative viability ([18]; first compound 0.8 µM): 0.997
- relative viability ([18]; first compound 2.53 µM): 0.918
- relative viability ([18]; first compound 8 µM): 1.21
- relative viability ([19]; first compound 0.08 µM): 0.873
- relative viability ([19]; first compound 0.253 µM): 0.987
- relative viability ([19]; first compound 0.8 µM): 0.887
- relative viability ([19]; first compound 2.53 µM): 0.865
- relative viability ([19]; first compound 8 µM): 0.929

— the supplement of paper PMC10307832
